Results on eight molecules are retold here after patent US5336687A, “Inhibition of bone loss by 4-aryloxy-5-hydroxy-2(5H)-furanones” (American Home Products Corporation, priority 1993, dated 1994).

Converted amounts (≈) assume the structure as drawn.

One series deals with Rat Femur. Description: Immobilization Dependent Bone Loss in the Rat Femur (ovariectomized rats, unilateral sciatic neurotomy). Type of series: in vivo. To be noted: 20 mg/kg, i.p., 5×/week for 4 weeks. As to the method: This assay was performed according to the procedure described by Kharode Y.P., Kowal D., O'Rourke S., and Hayward M., "Effect of Time and Pharmacologic Intervention on Bone Mineralization," J. Bone Min. Res. 2, Supp.1. (1987).
Bone mass was determined in the contralateral femora from ovariectomized rats which had been subjected to unilateral sciatic nerve severance. After sciatic neurotomy, the rats were treated with test compound for 2 to 4 weeks. The rats were euthanized, the femora were excised, debrided of soft tissue, and then dehydrated. After drying, the mass of each pair of femora was determined by weighing. The % change in bone mass is calculated using the formula: [formula]

The test system of a further series is Rat Limb Bone. Description: 45Ca Release from Rat Limb Bone (inhibition of bone resorption). To be noted: for minimal effective concentration: concentration required to inhibit bone resorption, from regression analysis, read-out: MIC, Inhibition of Bone Resorption (45Ca release). Type of series: cell-based, rat (Sprague-Dawley CD). As to the method: Timed pregnant Sprague-Dawley CD rats (Charles River) are administered 100 uCi^45 CaCl2 (NEN calcium-45 NEZ-013) in 100 μl of 0.9% saline, subcutaneously, on day 18 of gestation. The rats are sacrificed the following day by asphyxiation. […] The modified BGJb media is obtained without salts glucose or bicarbonate and is supplemented before use with 0.1 mM MgCl2, 1.25 mM CaCl2, 5.3 mM KCl, 0.7 mM MgSO4, 130 mM NaCl, 1.0 mM NaH2 PO4, 1 g/1 glucose, 50 mg/1 Na acetate and 100 U/ml penicillin G. The medium is sterilized by passage through a […] filter (Nalge). Under a dissecting microscope, the bones are gently cleaned of adherent tissue and the cartilagenous ends removed. Step (2): Incubation and Drug Treatment The midshafts are placed, individually, on 3×3 mm squares of filter paper (Gelman […] filters; […] pore size) which rest on stainless steel screens in wells of 24-well culture plates containing 0.5 ml of preincubation medium. The preincubation medium is brought to 37 deg. C. prior to transfer of bones. The preincubation medium consists of the modified BGJb medium (with salts and glucose as above), pH 7.3, containing 29 mM NaHCO3. After incubation for 18-24 hours at 37° C. in 5% CO2, the bones are transferred on their screen/filter paper supports to new plates containing, in a total volume of 0.5 ml/well at 37° C., the test compound diluted in preincubation medium supplemented with 15% heat inactivated horse serum (Gibco No. 230-6050), pH 7.3, with or without a bone resorption stimulating agent (parathyroid hormone [PTH]). For compounds that require nonaqueous solvents, dilutions are made from the appropriate stock solution with medium. In these instances, basal and bone resorption stimulated controls exposed to an equivalent concentration of the vehicle are included. An additional group of bones that have been subjected to boiling for 1 hour are used to establish background, non cell mediated, exchange of ^45 Ca. The right ulna and radius from each fetus are used. Both bones are subjected to the same treatment and each treatment group consists of bones from 4 or more fetuses. Treatments are randomly assigned using a preclinical statistics program (PS-ALLOC). After a 48 hour incubation at 37° C. in 5% CO2, the bones are removed from the medium and extracted in 0.5 ml of 0.1N HCl for 1 or more days. Duplicate 150 μl aliquots of the incubation medium and the bone extract are analyzed for ^45 Ca radioactivity in 5 ml of liquid scintillation cocktail. The percentage of bone ^45 Ca released into the medium is determined as follows: [formula] Results are normally expressed as the ratio of the percent ^45 Ca release of the experimental group verses the appropriate vehicle control. […] A regression analysis is calculated for dose response and the concentration of test compound required to inhibit bone resorption (^45 Ca release) is reported (Table II).

For series [1] the following is noted: cited from earlier work.
Setting [2] is: Rattus norvegicus, 48 hour incubation at 37° C.

With `O=C1C=C(Oc2ccc(-c3ccccc3)cc2)C(O)O1` (stereo not drawn) [Example 1, 4-([1,1'-Biphenyl]-4-yloxy)-5-hydroxy-2(5H)-furanone], the “% Change in Bone Mass” value in the series with Rat Femur was determined as 4.8 ± 0.6%. In the series on Rat Limb Bone (setting [2]), the minimal effective concentration came out at 10 µg/mL.

Take `CCCCCCCCc1ccc(OC2=CC(=O)OC2O)cc1` (stereo not drawn) [Example 3, 4-(4-Octylphenoxy)-5-hydroxy-2(5H)-furanone]: the minimal effective concentration with Rat Limb Bone (setting [2]) is 10 µg/mL.

As to `O=C1C=C(Oc2ccc(C3CCCC3)cc2)C(O)O1` (stereo not drawn) [Example 4, 4-(4-Cyclopentylphenoxy)-5-hydroxy-2(5H)-furanone], in the series on Rat Limb Bone (setting [2]), the minimal effective concentration stood at 1 µg/mL.

Turning to `O=C1C=C(Oc2ccc(C(F)(F)F)cc2)C(O)O1` (stereo not drawn) [Example 5, 4-(4-Trifluoromethylphenoxy)-5-hydroxy-2(5H)-furanone], in the series with Rat Limb Bone (Rattus norvegicus, 48 hour incubation at 37° C., printed in the MIC (μg/mL) column), the IC50 (in general, the midpoint of a concentration-inhibition curve) is 3.5 µg/mL (≈ 13.5 µM).

In the case of `O=C1C=C(Oc2ccc(Sc3ccccc3)cc2)C(O)O1` (stereo not drawn) [Example 7, 4-[4-thiophenyl-1-phenoxy]-5-hydroxy-2(5H)-furanone], the minimal effective concentration with Rat Limb Bone (setting [2]) is 10 µg/mL.

Consider `[F-].[Na+]` [sodium fluoride], for which, in series [1] (in vivo), the bone growth quality result is listed as “irregular”, the fracture incidence entry was “does not appear to be significantly lowered” and the “mitogenic activity for osteoblasts” value is reported as “mitogenic for osteoblasts”. Further, in series [1] (may result in increase up to 8-10% a year), the bone density increase is 8-10 % a year.

Regarding Estrogen, the side effects entry in series [1] (in vivo) was “increased risk of certain types of cancers”.

B1: PTH: bone resorption stimulating agent (parathyroid hormone [PTH]) (protein, UniProt P01270 32-115, looked up)
Parathyroid hormone: SVSEIQLMHNLGKHLNSMERVEWLRKKLQDVHNFVALGAPLAPRDAGSQRPRKKEDNVLVESHEKSLGEADKADVNVLTKAKSQ
Take B1: the “ratio of the percent 45Ca release vs vehicle control (basal = 1.00)” value in the series on Rat Limb Bone (PTH 10^-7 M, bone resorption agent, 'commonly') is listed as 1.3-2.0.
